# Earlier results, collected in US20090247603A1, “Stabilized pharmaceutical compositions comprising an HMG-CoA reductase inhibitor” (Orbus Pharma, Inc., priority 2005, published 2009).
# Conditions: following oral administration
smiles,measurement,value
"CC(C)c1c(C(=O)Nc2ccccc2)c(-c2ccccc2)c(-c2ccc(F)cc2)n1CC[C@@H](O)C[C@@H](O)CC(=O)[O-].CC(C)c1c(C(=O)Nc2ccccc2)c(-c2ccccc2)c(-c2ccc(F)cc2)n1CC[C@@H](O)C[C@@H](O)CC(=O)[O-].[Ca+2] (relative stereo) [atorvastatin calcium, (R—(R*,R*))-2-(4-fluorophenyl)-[beta],[delta]-dihydroxy-5-(1-methylethyl)-3-phenyl-4((phenylamino)carbonyl)-1H-pyrole-1-heptanoic acid hemi calcium salt]",dose recovered in urine,Less than 2%
